ChEMBL document CHEMBL1275576, “In vitro activity of tomopenem (CS-023/RO4908463) against anaerobic bacteria” (Antimicrob Agents Chemother, 2009)

Experiments:
Format in all cases: functional
[1] = tested on: Bacteroides fragilis; assay: Antimicrobial activity against carbapenemase-producing Bacteroides fragilis GAI 30079 by agar dilution method in presence of 5% laked sheep blood
[2] = tested on: Bacteroides fragilis; assay: Antimicrobial activity against carbapenemase-producing Bacteroides fragilis GAI 30144 by agar dilution method in presence of 5% laked sheep blood
[3] = tested on: Phocaeicola vulgatus; assay: Antimicrobial activity against Bacteroides vulgatus GAI 0673 by agar dilution method in presence of 5% laked sheep blood
[4] = Antimicrobial activity against Parabacteroides distasonis ATCC 8503 by agar dilution method in presence of 5% laked sheep blood
[5] = tested on: Bacteroides ovatus; assay: Antimicrobial activity against Bacteroides ovatus ATCC 8483 by agar dilution method in presence of 5% laked sheep blood
[6] = tested on: Bacteroides thetaiotaomicron; assay: Antimicrobial activity against Bacteroides thetaiotaomicron ATCC 29741 by agar dilution method in presence of 5% laked sheep blood
[7] = tested on: Bacteroides eggerthii DSM 20697; assay: Antimicrobial activity against Bacteroides eggerthii ATCC 27754 by agar dilution method in presence of 5% laked sheep blood
[8] = tested on: Campylobacter ureolyticus; assay: Antimicrobial activity against Bacteroides ureolyticus NCTC 10941 by agar dilution method in presence of 5% laked sheep blood
[9] = tested on: Campylobacter gracilis; assay: Antimicrobial activity against Campylobacter gracilis JCM 8538 by agar dilution method in presence of 5% laked sheep blood
[10] = tested on: Sutterella wadsworthensis; assay: Antimicrobial activity against Sutterella wadsworthensis ATCC 51579 by agar dilution method in presence of 5% laked sheep blood
[11] = tested on: Prevotella bivia; assay: Antimicrobial activity against Prevotella bivia ATCC 29303 by agar dilution method in presence of 5% laked sheep blood; details: DSM 20514
[12] = tested on: Prevotella buccae; assay: Antimicrobial activity against Prevotella buccae ATCC 33574 by agar dilution method in presence of 5% laked sheep blood; details: Segatella buccae
[13] = tested on: Prevotella corporis; assay: Antimicrobial activity against Prevotella corporis GAI 91000 by agar dilution method in presence of 5% laked sheep blood
[14] = tested on: Bacteroides heparinolyticus; assay: Antimicrobial activity against Prevotella heparinolytica ATCC 35895 by agar dilution method in presence of 5% laked sheep blood
[15] = tested on: Prevotella intermedia; assay: Antimicrobial activity against Prevotella intermedia ATCC 25611 by agar dilution method in presence of 5% laked sheep blood
[16] = tested on: Hoylesella oralis; assay: Antimicrobial activity against Prevotella oralis ATCC 33269 by agar dilution method in presence of 5% laked sheep blood
[17] = tested on: Porphyromonas gingivalis; assay: Antimicrobial activity against Porphyromonas gingivalis ATCC 33277 by agar dilution method in presence of 5% laked sheep blood
[18] = tested on: Fusobacterium varium; assay: Antimicrobial activity against Fusobacterium varium ATCC 8501 by agar dilution method in presence of 5% laked sheep blood
[19] = tested on: Fusobacterium necrophorum; assay: Antimicrobial activity against Fusobacterium necrophorum ATCC 25286 by agar dilution method in presence of 5% laked sheep blood
[20] = tested on: Bilophila wadsworthia; assay: Antimicrobial activity against Bilophila wadsworthia WAL 7959 by agar dilution method in presence of 5% laked sheep blood
[21] = tested on: Capnocytophaga ochracea; assay: Antimicrobial activity against Capnocytophaga ochracea GAI 5586 by agar dilution method in presence of 5% laked sheep blood
[22] = tested on: Veillonella parvula; assay: Antimicrobial activity against Veillonella parvula ATCC 10790 by agar dilution method in presence of 5% laked sheep blood
[23] = tested on: Anaerococcus prevotii; assay: Antimicrobial activity against Anaerococcus prevotii ATCC 9321 by agar dilution method in presence of 5% laked sheep blood
[24] = Antimicrobial activity against Finegoldia magna ATCC 29328 by agar dilution method in presence of 5% laked sheep blood
[25] = tested on: Parvimonas micra; assay: Antimicrobial activity against Parvimonas micra VPI 5464-1 by agar dilution method in presence of 5% laked sheep blood
[26] = tested on: Peptoniphilus indolicus; assay: Antimicrobial activity against Peptoniphilus indolicus GAI 0915 by agar dilution method in presence of 5% laked sheep blood
[27] = tested on: Peptostreptococcus anaerobius; assay: Antimicrobial activity against Peptostreptococcus anaerobius ATCC 27337 by agar dilution method in presence of 5% laked sheep blood
[28] = tested on: Staphylococcus saccharolyticus; assay: Antimicrobial activity against Staphylococcus saccharolyticus ATCC 14953 by agar dilution method in presence of 5% laked sheep blood
[29] = tested on: Streptococcus constellatus; assay: Antimicrobial activity against Streptococcus constellatus ATCC 27923 by agar dilution method in presence of 5% laked sheep blood
[30] = tested on: Enterocloster clostridioformis; assay: Antimicrobial activity against Clostridium clostridioforme NCTC 11224 by agar dilution method in presence of 5% laked sheep blood
[31] = tested on: Clostridioides difficile; assay: Antimicrobial activity against Clostridium difficile GAI 10029 by agar dilution method in presence of 5% laked sheep blood
[32] = tested on: Clostridium septicum; assay: Antimicrobial activity against Clostridium septicum ATCC 12464 by agar dilution method in presence of 5% laked sheep blood
[33] = tested on: Thomasclavelia ramosa; assay: Antimicrobial activity against Clostridium ramosum ATCC 25582 by agar dilution method in presence of 5% laked sheep blood
[34] = tested on: Schaalia odontolytica; assay: Antimicrobial activity against Actinomyces odontolyticus GAI 91002 by agar dilution method in presence of 5% laked sheep blood
[35] = tested on: Bifidobacterium bifidum; assay: Antimicrobial activity against Bifidobacterium bifidum JCM 1255 by agar dilution method in presence of 5% laked sheep blood
[36] = tested on: Cutibacterium acnes; assay: Antimicrobial activity against Propionibacterium acnes ATCC 11828 by agar dilution method in presence of 5% laked sheep blood
[37] = tested on: Propionibacterium granulosum; assay: Antimicrobial activity against Propionibacterium granulosum ATCC 25564 by agar dilution method in presence of 5% laked sheep blood; details: Cutibacterium granulosum
[38] = tested on: Lactobacillus acidophilus; assay: Antimicrobial activity against Lactobacillus acidophilus JCM 1132 by agar dilution method in presence of 5% laked sheep blood
[39] = tested on: Lacticaseibacillus casei; assay: Antimicrobial activity against Lactobacillus casei subsp. casei JCM 1134 by agar dilution method in presence of 5% laked sheep blood
[40] = tested on: Limosilactobacillus fermentum; assay: Antimicrobial activity against Lactobacillus fermentum JCM 1173 by agar dilution method in presence of 5% laked sheep blood
[41] = tested on: Lactiplantibacillus plantarum; assay: Antimicrobial activity against Lactobacillus plantarum JCM 1149 by agar dilution method in presence of 5% laked sheep blood
[42] = tested on: Lactobacillus salivarius; assay: Antimicrobial activity against Lactobacillus salivarius subsp. salivarius JCM 1231 by agar dilution method in presence of 5% laked sheep blood; details: Ligilactobacillus salivarius
[43] = tested on: Bacteroides fragilis; assay: Antimicrobial activity against Bacteroides fragilis ATCC 25285 by agar dilution method in presence of 5% laked sheep blood; details: NCTC 9343
[44] = tested on: Bacteroides fragilis; assay: Antimicrobial activity against Bacteroides fragilis NCTC 10581 by agar dilution method in presence of 5% laked sheep blood
[45] = tested on: Bacteroides fragilis; assay: Antimicrobial activity against Bacteroides fragilis GAI 0558 by agar dilution method in presence of 5% laked sheep blood
[46] = tested on: Bacteroides fragilis; assay: Antimicrobial activity against Bacteroides fragilis GAI 7955 by agar dilution method in presence of 5% laked sheep blood

Measured: MIC

CCC[C@@H]1C[C@@H](C(=O)N[C@@H]([C@H]2O[C@H](SC)[C@H](O)[C@@H](O)[C@H]2O)[C@H](C)Cl)N(C)C1 [CLINDAMYCIN]
1 µg/mL: [38] | [43] | [46]
32 µg/mL: [26]
16 µg/mL: [10]
0.5 µg/mL: [5] | [20] | [45]
0.125 µg/mL: [9] | [23] | [28] | [36]
0.25 µg/mL: [8] | [25] | [27] | [29] | [30] | [34] | [41]
> 128 µg/mL: [1] | [31]
4 µg/mL: [6] | [18]
2 µg/mL: [2] | [24] | [39]
8 µg/mL: [33]
0.06 µg/mL: [3] | [4] | [42]
≤ 0.03 µg/mL: all other assays above

C[C@@H](O)[C@H]1C(=O)N2C(C(=O)O)=C(S[C@H]3C[C@@H](C(=O)N4CC[C@H](NC(=O)CNC(=N)N)C4)N(C)C3)[C@H](C)[C@H]12 [TOMOPENEM]
0.25 µg/mL: [3] | [4] | [12] | [29] | [38] | [43]
0.06 µg/mL: [9] | [13] | [15] | [16] | [21] | [28] | [35] | [41]
0.125 µg/mL: [7] | [14] | [20] | [23] | [24] | [25] | [40] | [44]
0.03 µg/mL: [8] | [17] | [22] | [30] | [32]
> 128 µg/mL: [1] | [2]
1 µg/mL: [36] | [39] | [45]
≤ 0.015 µg/mL: [19] | [26]
4 µg/mL: [46]
2 µg/mL: [31]
0.5 µg/mL: all other assays above
